Test results from US20260240810A1, “COMPOSITIONS AND METHODS FOR REDUCING ADVERSE SIDE EFFECTS IN CANCER TREATMENT” (priority 2022, published 2026).
“And” between values parts separate entries of the source, which are not always exact repeats. Equal entries are not always repeated.

Key:
[1] = Repeated-dose toxicity study in dogs; type: in vivo
Protocol: Repeated-dose toxicity studies of RRx-001 (3 times/week up to 4 weeks in duration) were conducted in rats at dose levels of 12 mg/kg, 20.1 mg/kg, and 30 mg/kg per day and in dogs at dose levels of 4 mg/kg, 8 mg/kg, and 12 mg/kg per day (due to clinical signs, the 8 mg/kg and 12 mg/kg doses were reduced to 3 mg/kg and 5 mg/kg on Day 4). The no observed adverse effect level was <12 mg/kg in rats and 5 mg/kg in dogs.

[2] = test system: oral mucositis induced by acute radiation in hamsters; assay: Oral mucositis induced by acute radiation in hamsters; type: in vivo, Golden Hamsters
Protocol: Referring to FIG. 11, FIG. 11 is a table 1100 showing a study design for an assessment of RRx-001 for the treatment of oral mucositis induced by acute radiation in hamsters. Mucositis was induced in 56 male Golden Hamsters via an acute radiation dose of 40 Gy directed to their left buccal cheek pouch. RRX-001 was administered with a vehicle comprising a 1:2 vol; vol ratio of N,N-Dimethylacetamide/40% Polyethylene Glycol (DMA:PBG). […] Otherwise, dosing was administered according to the “Dose Schedule” column of the table 1100. The study lasted 28 days. Mucositis was evaluated in hamsters from day 6 through day 28.
Starting at day 6 of the study and continuing every second day thereafter (day 8, 10, 12, 14, 16, 18, 20, 22, 24, 26, and 28), the hamsters were photographed and evaluated for mucositis scoring. The hamsters were anesthetized and the left pouch everted to evaluate a score each hamster based on a severity of mucositis. The scores, on a scale of 0-5, are defined as follows: • “0” means a pouch is completely healthy. • “1” means light to […] erythema and vasodilation and no erosion of mucosa. • “2” means severe erythema and vasodilation. Erosion of superficial aspects of mucosa leaving denuded areas. Decreased stippling of mucosa. • “3” means formation of off-white ulcers in one or more places. Ulcers may have a yellow/gray color due to pseudomembrane. Cumulative size of ulcers should equal less than or equal to ¼ of the pouch. Severe erythema and vasodilation. • “4” means a cumulative seize of ulcers should equal about ½ of the pouch. Loss of pliability. Severe erythema and vasodilation. • “5” means virtually all of pouch is ulcerated. Loss of pliability (pouch can only partially be extracted from mouth).
FIG. 15B is a bar graph 1550 showing a percent of cumulative animal days with mucositis scores greater than or equal to 3 for days 6-28. Statistical significance of the observed differences was calculated using chi-squared analysis.
FIG. 16B is a bar graph 1650 showing a percent of cumulative animal days with mucositis scores greater than or equal to 3 for days 6-28. Statistical significance of the observed differences was calculated using chi-squared analysis.
Referring to FIG. 18, FIG. 18 is a table 1800 showing a percent of hamsters with ulceration by day with mucositis scores of greater than or equal to 3. Each data point represents a percentage of hamsters in each group on a day that had both a mucositis score of 3 or greater and open ulcers. Like FIGS. 17A and 17B, horizontal shading denotes a decrease in mucositis scores and vertical shading denotes an increase in mucositis scores.

[3] = test system: squamous cell carcinoma of the oral cavity or oropharynx; assay: PREVLAR trial: tumor response and cancer recurrence; type: in vivo, human
Source text: Referring to FIG. 6, FIG. 6 is a table 600 showing various incidences of outcomes for patients in Arm 4 of the PREVLAR study vs. patients in Arms 1, 2, and 3 of the PREVLAR study. The various outcomes include a complete response (CR), a partial response (PR), a CR or PR, not evaluable (NE), and missing. […] Thus, administration of RRx-001 was correlated to better outcomes.
Referring to FIG. 10, FIG. 10 is a bar graph 1000 showing a percentage of less cancer recurrence in RRx-001 treated patients. Accordingly, a higher percentage is correlated to the better outcome of lower cancer recurrence. […] Patients in Arm 4 had the lowest percentage drop of 30.8% of cancer recurrence.
The treatment phase commenced 2 weeks before the start of CRT and continued until the LDRT. The short-term follow-up stage started the day after LDRT and continued until complete resolution of ulcerative OM (World Health Organization (WHO) grade≤1 or 6 weeks after the LDRT, whichever came first). Long-term follow-up was performed to assess tumor response for 12 months after the LDRT. OM was assessed twice weekly beginning on the first day of CRT and continuing to resolution of ulcerative OM by trained evaluators using a standardized data collection tool.

O=C(CBr)N1CC([N+](=O)[O-])([N+](=O)[O-])C1 [RRx-001, 2-bromo-1-(3,3-dinitroazetidin-1-yl) ethan-1-one]
no observed adverse effect level ([1]; 3 times/week up to 4 weeks): 5 mg/kg
organ effects ([1]; repeated dose): Effects on lungs were observed
percent of hamsters with ulceration (mucositis score ≥3) ([2]; day 12, group 2 (10 mg/kg, discontinued after day 1)): 40%
percent of hamsters with ulceration (mucositis score ≥3) ([2]; day 28, group 2 (10 mg/kg, discontinued after day 1)): 40%
mean daily mucositis score ([2]; day 28, group 2 (10 mg/kg, dosing discontinued after day 1)): approximately 2.2
mean daily mucositis score ([2]; day 28, group 3 (3 mg/kg)): approximately 2.7
percent of hamsters with ulceration (mucositis score ≥3) ([2]; day 28, group 5 (10 mg/kg, discontinued after day 1)): 57.1%
mean daily mucositis score ([2]; day 28, group 5 (10 mg/kg, dosing discontinued after day 1)): approximately 2.6
mean daily mucositis score ([2]; day 28, group 6 (3 mg/kg)): approximately 2.7
percent of hamsters with ulceration (mucositis score ≥3) ([2]; day 28, groups 3 and 6 (3 mg/kg)): 75.0%
percent of hamsters with ulceration (mucositis score ≥3) ([2]; day 28, groups 4 and 7 (1 mg/kg)): 62.5%
percent of cumulative animal days with mucositis score greater than or equal to 3 ([2]; days 6-28, group 3 (3 mg/kg)): 63.54%
percent of cumulative animal days with mucositis score greater than or equal to 3 ([2]; days 6-28, group 6 (3 mg/kg), 3 mg/kg): 53.45% and 63.54%
body weight change ([2]; groups 2 and 5 (10 mg/kg)): initially lost weight, but rebounded
tolerability of dosing ([2]; groups 2 and 5 (10 mg/kg)): discontinued after day 1 due to adverse side effects
percentage drop of cancer recurrence ([3]; Arm 1): 50%
percentage drop of cancer recurrence ([3]; Arm 2): 53.8%
percentage drop of cancer recurrence ([3]; Arm 3): 76.9%
incidence of either CR or PR ([3]; patients in Arms 1, 2, or 3): 65.7%
incidence of complete response (CR) ([3]; patients that received RRx-001 in Arms 1, 2, or 3): 48.6%
